Consider 11 compounds from PubChem BioAssay AID250 (DTP/NCI, 2004).

In this test the test system is BDF1 mice, L1210 leukemia sc, survival T/C. As to the kind of experiment: NCI In Vivo Anticancer Drug Screen. Data for tumor model L1210 Leukemia (subcutaneous) in B6D2F1 (BDF1) mice. The note with it: higher = longer survival. In a few lines:
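Antitumor activity is assessed in mice with transplanted tumors by comparing the treated group (T) with the vehicle control group (C).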

The mark [1] stands for this setting: endpoint: median survival time, dose: 65.0 mg/kg/injection, schedule: Q01DX Z (sc), vehicle: saline.
[2] abbreviates: endpoint: median survival time, dose: 108.0 mg/kg/injection, schedule: Q01DX Z (sc), vehicle: saline.
Setting [3] is: endpoint: median survival time, dose: 180.0 mg/kg/injection, schedule: Q01DX Z (sc), vehicle: saline.
Where [4] appears, read: endpoint: median survival time, dose: 108.0 mg/kg/injection, schedule: Q01DX Z (sc), vehicle: methylcellulose (MC).

Molecules are shown by their SMILES. “And” between values parts separate entries of the source, which are not always exact repeats. Equal entries are not always repeated. Inconclusive results and toxic doses are left out.

In the case of `O=c1[nH]c(=O)n(C2CC(O)C(CO)O2)cc1Br` (centres undefined), the T/C runs as follows: under setting [1], 111 % of control; under setting [2], 111 % of control; under setting [3], 111 % of control; (endpoint: median survival time, dose: 300.0 mg/kg/injection, schedule: Q01DX Z (sc), vehicle: saline) 111 % of control; (endpoint: median survival time, dose: 500.0 mg/kg/injection, schedule: Q01DX Z (sc), vehicle: saline) 122 % of control; (endpoint: median survival time, dose: 833.0 mg/kg/injection, schedule: Q01DX Z (sc), vehicle: saline) 122 % of control.

On to `CCOS(C)(=O)=O`, for which the T/C reads like this: (endpoint: median survival time, dose: 14.0 mg/kg/injection, schedule: Q01DX Z (sc), vehicle: saline) 100 % of control; (endpoint: median survival time, dose: 23.0 mg/kg/injection, schedule: Q01DX Z (sc), vehicle: saline) 95 % of control; (endpoint: median survival time, dose: 39.0 mg/kg/injection, schedule: Q01DX Z (sc), vehicle: saline) 100 % of control; under setting [1], 90 % of control; under setting [2], 95 % of control; under setting [3], 90 % of control.

Take `O=C(O)c1[nH]c(=O)[nH]c(=O)c1F`: the T/C is 105 % of control (endpoint: median survival time, dose: 2.5 mg/kg/injection, schedule: Q01DX Z (sc), vehicle: methylcellulose (MC)); 166 % of control (endpoint: median survival time, dose: 8.0 mg/kg/injection, schedule: Q01DX Z (sc), vehicle: saline); 158 % of control (endpoint: median survival time, dose: 10.0 mg/kg/injection, schedule: Q01DX Z (sc), vehicle: methylcellulose (MC)); 150 % of control (endpoint: median survival time, dose: 16.0 mg/kg/injection, schedule: Q01DX Z (sc), vehicle: saline); 164 % of control (endpoint: median survival time, dose: 20.0 mg/kg/injection, schedule: Q01DX Z (sc), vehicle: methylcellulose (MC)); 166 % of control (endpoint: median survival time, dose: 32.0 mg/kg/injection, schedule: Q01DX Z (sc), vehicle: saline). Moreover, the T/C is 176 % of control (endpoint: median survival time, dose: 40.0 mg/kg/injection, schedule: Q01DX Z (sc), vehicle: methylcellulose (MC)); 155 % of control (endpoint: median survival time, dose: 64.0 mg/kg/injection, schedule: Q01DX Z (sc), vehicle: saline); 155 % of control (endpoint: median survival time, dose: 128.0 mg/kg/injection, schedule: Q01DX Z (sc), vehicle: saline); 150 % of control (endpoint: median survival time, dose: 256.0 mg/kg/injection, schedule: Q01DX Z (sc), vehicle: saline).

`CC1CC(C)(O)CC(C(O)CC2CC(=O)NC(=O)C2)C1=O` (centres undefined): the T/C is 108 % of control (endpoint: median survival time, dose: 0.14 mg/kg/injection, schedule: Q01DX Z (sc), vehicle: saline); 120 % of control (endpoint: median survival time, dose: 0.24 mg/kg/injection, schedule: Q01DX Z (sc), vehicle: saline); 120 % of control (endpoint: median survival time, dose: 0.39 mg/kg/injection, schedule: Q02DX Z (sc), vehicle: saline); 116 % of control (endpoint: median survival time, dose: 0.4 mg/kg/injection, schedule: Q01DX Z (sc), vehicle: saline); 120 % of control (endpoint: median survival time, dose: 0.65 mg/kg/injection, schedule: Q02DX Z (sc), vehicle: saline); 116 % of control (endpoint: median survival time, dose: 0.67 mg/kg/injection, schedule: Q01DX Z (sc), vehicle: saline). For the same compound, the T/C was 120 % of control (endpoint: median survival time, dose: 1.08 mg/kg/injection, schedule: Q01DX Z (sc), vehicle: saline); 120 % of control (endpoint: median survival time, dose: 1.08 mg/kg/injection, schedule: Q02DX Z (sc), vehicle: saline); 110 % of control (endpoint: median survival time, dose: 1.08 mg/kg/injection, schedule: Q## X Z (sc), vehicle: saline); 104 % of control (endpoint: median survival time, dose: 1.12 mg/kg/injection, schedule: Q01DX Z (sc), vehicle: saline); 120 % of control (endpoint: median survival time, dose: 1.8 mg/kg/injection, schedule: Q01DX Z (sc), vehicle: saline); 120 % of control (endpoint: median survival time, dose: 1.8 mg/kg/injection, schedule: Q02DX Z (sc), vehicle: saline). Moreover, the T/C runs as follows: (endpoint: median survival time, dose: 1.8 mg/kg/injection, schedule: Q## X Z (sc), vehicle: saline) 110 % of control; (endpoint: median survival time, dose: 1.87 mg/kg/injection, schedule: Q01DX Z (sc), vehicle: saline) 100 % of control; (endpoint: median survival time, dose: 3.0 mg/kg/injection, schedule: Q01DX001 (sc), vehicle: saline) 120 % of control; (endpoint: median survival time, dose: 3.0 mg/kg/injection, schedule: Q01DX Z (sc), vehicle: saline) 110 % of control; (endpoint: median survival time, dose: 3.0 mg/kg/injection, schedule: Q## X Z (sc), vehicle: saline) 115 % of control; (endpoint: median survival time, dose: 3.11 mg/kg/injection, schedule: Q01DX Z (sc), vehicle: saline) 100 % of control. Moreover, the T/C (endpoint: median survival time, dose: 5.0 mg/kg/injection, schedule: Q01DX001 (sc), vehicle: saline) is 120 % of control; the T/C (endpoint: median survival time, dose: 5.0 mg/kg/injection, schedule: Q01DX Z (sc), vehicle: saline) was 100 % of control; the T/C (endpoint: median survival time, dose: 5.0 mg/kg/injection, schedule: Q## X Z (sc), vehicle: saline) is 115 % of control; the T/C (endpoint: median survival time, dose: 8.4 mg/kg/injection, schedule: Q02DX Z (sc), vehicle: saline) is 110 % of control; the T/C (endpoint: median survival time, dose: 8.4 mg/kg/injection, schedule: Q## X Z (sc), vehicle: saline) is 120 % of control; the T/C (endpoint: median survival time, dose: 14.0 mg/kg/injection, schedule: Q02DX Z (sc), vehicle: saline) is 100 % of control. Further, for the setting “endpoint: median survival time, dose: 14.0 mg/kg/injection, schedule: Q## X Z (sc), vehicle: saline”, the T/C was 120 % of control.

`COc1cc(NS(C)(=O)=O)ccc1Nc1c2cccc(C)c2nc2c(C)cccc12`: the T/C by setting is: (endpoint: mean survival time, dose: 6.25 mg/kg/injection, schedule: Q01DX009 (ip), vehicle: Klucel (hydroxypropylcellulose) (HPC)) 100 % of control; (endpoint: mean survival time, dose: 12.5 mg/kg/injection, schedule: Q01DX009 (ip), vehicle: Klucel (hydroxypropylcellulose) (HPC)) 103 % of control; (endpoint: mean survival time, dose: 25.0 mg/kg/injection, schedule: Q01DX009 (ip), vehicle: Klucel (hydroxypropylcellulose) (HPC)) 102 % of control; (endpoint: mean survival time, dose: 50.0 mg/kg/injection, schedule: Q01DX009 (ip), vehicle: Klucel (hydroxypropylcellulose) (HPC)) 103 % of control.

For the compound `CC(C)NNC(=O)c1ccncc1`, the T/C (endpoint: median survival time, dose: 200.0 mg/kg/injection, schedule: Q01DX001 (sc), vehicle: saline) is 105 % of control and 106 % of control; the T/C (endpoint: median survival time, dose: 400.0 mg/kg/injection, schedule: Q01DX001 (sc), vehicle: saline) is 100 % of control and 103 % of control.

For `CC(C)Sc1ncnc2nc[nH]c12`, the T/C reads like this: (endpoint: median survival time, dose: 38.9 mg/kg/injection, schedule: Q01DX Z (sc), vehicle: methylcellulose (MC)) 110 % of control; (endpoint: median survival time, dose: 64.8 mg/kg/injection, schedule: Q01DX Z (sc), vehicle: methylcellulose (MC)) 155 % of control; under setting [4], 155 % of control.

For the compound `O=C(Nc1ccc(C2=NCCN2)cc1)c1ccc(C(=O)Nc2ccc(C3=NCCN3)cc2)c(NC(=O)c2ccc(C(=O)Nc3cc(C(=O)Nc4ccc(C5=NCCN5)cc4)ccc3C(=O)Nc3ccc(C4=NCCN4)cc3)cc2)c1`, the T/C by setting is: (endpoint: median survival time, dose: 23.0 mg/kg/injection, schedule: Q01DX Z (sc), vehicle: water) 110 % of control; (endpoint: median survival time, dose: 39.0 mg/kg/injection, schedule: Q01DX Z (sc), vehicle: water) 100 % of control; (endpoint: median survival time, dose: 65.0 mg/kg/injection, schedule: Q01DX Z (sc), vehicle: water) 100 % of control; (endpoint: median survival time, dose: 108.0 mg/kg/injection, schedule: Q01DX Z (sc), vehicle: water) 100 % of control; (endpoint: median survival time, dose: 180.0 mg/kg/injection, schedule: Q01DX Z (sc), vehicle: water) 100 % of control; (endpoint: median survival time, dose: 300.0 mg/kg/injection, schedule: Q01DX Z (sc), vehicle: water) 100 % of control.

For the compound `CS(=O)(=O)OCCCCCCCCCOS(C)(=O)=O`, the T/C was 105 % of control (endpoint: median survival time, dose: 47.0 mg/kg/injection, schedule: Q01DX Z (sc), vehicle: methylcellulose (MC)); 115 % of control (endpoint: median survival time, dose: 78.0 mg/kg/injection, schedule: Q01DX Z (sc), vehicle: methylcellulose (MC)); 160 % of control (endpoint: median survival time, dose: 216.0 mg/kg/injection, schedule: Q01DX Z (sc), vehicle: methylcellulose (MC)).

Take `O=C(Nc1ccc(C(=O)Nc2ccc(C3=NCCN3)cc2)cc1)Nc1ccc(C2=NCCN2)cc1`: the T/C by setting is: (endpoint: median survival time, dose: 39.0 mg/kg/injection, schedule: Q01DX Z (sc), vehicle: methylcellulose (MC)) 95 % of control; (endpoint: median survival time, dose: 65.0 mg/kg/injection, schedule: Q01DX Z (sc), vehicle: methylcellulose (MC)) 95 % of control; under setting [4], 100 % of control; (endpoint: median survival time, dose: 180.0 mg/kg/injection, schedule: Q01DX Z (sc), vehicle: methylcellulose (MC)) 110 % of control.

As for `O=C(Nc1ccc(NC2=NCCN2)cc1)c1ccc(C(=O)Nc2ccc(NC3=NCCN3)cc2)cc1`, the T/C reads like this: (endpoint: median survival time, dose: 1.08 mg/kg/injection, schedule: Q01DX Z (sc), vehicle: water) 110 % of control; (endpoint: median survival time, dose: 1.8 mg/kg/injection, schedule: Q01DX Z (sc), vehicle: water) 110 % of control; (endpoint: median survival time, dose: 5.0 mg/kg/injection, schedule: Q01DX Z (sc), vehicle: water) 260 % of control; (endpoint: median survival time, dose: 8.4 mg/kg/injection, schedule: Q01DX Z (sc), vehicle: water) 175 % of control; (endpoint: median survival time, dose: 14.0 mg/kg/injection, schedule: Q01DX Z (sc), vehicle: water) 150 % of control.
